# PubChem BioAssay AID179 (DTP/NCI, 2004)
# The source made the active and inactive calls.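 Rule for the calls: active = compounds giving half or more protection of infected cells from virus-caused growth loss, again on retest; inactive = the rest.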
# Tested on: CEM cells HIV-1 protection, formazan growth assay
# Assay: NCI AIDS Antiviral Assay
# Conditions: for IC50: measured here: growth of uninfected CEM cells
# Method in brief: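 Protection of CEM cells against HIV-1 measured as cell growth via soluble formazan read-out, with five concentrations tested on both infected and uninfected cells; failure to protect may reflect toxicity.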
SMILES,EC50,IC50,outcome
COc1ccc(N2C(=O)/C(=C\c3cc(OC)c(OC)c(OC)c3)S(=O)(=O)C2c2ccccc2)cc1 (stereo not given),> 200 µM,41.7 µM,
O=C(NCCCN1CCN(CCCNC(=O)c2cnc3ccccc3n2)CC1)c1cnc2ccccc2n1,> 10 µM,> 10 µM,
CSc1c(C#N)c(N)n(-c2ccc(Cl)cc2)c(=O)c1C#N,67.6 µM,72.4 µM,
Cc1ccc(C(=O)Nc2ccc(CP(=O)(O)O)cc2)cc1NC(=O)c1cccc(NC(=O)Nc2cccc(C(=O)Nc3cc(C(=O)Nc4ccc(CP(=O)(O)O)cc4)ccc3C)c2)c1,16.6 µM,50.1 µM,
CCc1cccc(C)c1NC(=O)C1=C(C)NC(C)=C(C(=O)Nc2c(C)cccc2CC)C1c1ccc([N+](=O)[O-])cc1,> 12.9 µM,> 12.9 µM,
C(/Cc1ccc2c(c1)OCO2)=N\NC1=NCCCN1,> 200 µM,38.9 µM,
Nc1nc(Cl)cc(Nc2ccc3c(c2)CCC3)n1,> 200 µM,22.4 µM,
COC1OC(CO)C(O)C1N (stereo not given),,,inactive
C=CCC1(O)CC(n2ccc(=O)[nH]c2=O)OC1CO[Si](C)(C)C(C)(C)C (stereo not given),> 200 µM,> 100 µM,
CC(C)(C)c1ccc(N=O)cc1,> 20 µM,2.45 µM,
COc1ccc(C(=O)C(C(=O)C(=O)Nc2nccs2)c2ccc(OC)cc2)cc1 (stereo not given),> 63.1 µM,> 63.1 µM,
NC(CSS(=O)(=O)O)=NCCCOCc1ccccc1,> 200 µM,112 µM,
CN1CCN(C)C(=O)CSSCC1=O,> 151 µM,> 151 µM,
S=C(NCCc1ccccn1)c1nc[nH]c1C(=S)NCCc1ccccn1,> 200 µM,19.1 µM,
CC(=O)[O-].[Ni].c1ccc(/C(=N\Nc2ccccn2)c2ccccn2)cc1,,,inactive
Cc1ncc([N+](=O)[O-])n1CC[N+](C)([O-])CCCCn1ccnc1[N+](=O)[O-] (stereo not given),,,inactive
CN(C(=O)c1ccc2c(c1)sc1c(=O)n(C)c3ccccc3c12)c1ccccc1,> 200 µM,> 200 µM,
CCn1c(=O)c(N=O)c(N)n(CC(C)C)c1=O,> 200 µM,174 µM,
O=[N+]([O-])c1ccccc1N=Cc1ccccc1O,> 200 µM,> 200 µM,
CN1C(=O)CC2C(=O)N(Cc3ccccc3)C(=O)C2C1=O (stereo not given),> 347 µM,> 347 µM,
CN(C(=O)CCC(=O)O)c1ccccc1C(=O)O,> 200 µM,> 200 µM,

SMILES,EC50,IC50,outcome
C=C1C(=O)O[C@H]2[C@H]3O[C@@H](C[C@@H]12)[C@](C)(O)CC[C@@H]1O[C@@]1(C)CCC[C@H]3C,> 200 µM,8.13 µM,
CC1(C)CC2C(C1=O)C1(C)CCCC2(C)C1=O (stereo not given),> 200 µM,> 200 µM,
COc1cc(CC(=O)c2cc3c(cc2-c2ccccc2)OCO3)cc(OC)c1OC,> 89.1 µM,24 µM,
COC(=O)C1C(OC(=O)C(Cl)(c2ccccc2)c2ccccc2)CC2CCC1N2C (stereo not given),> 200 µM,> 200 µM,
COC(=O)c1nc(-c2nc(CCNC(=O)OC(C)(C)C)sc2Cl)sc1Cl,> 4.27 µM,> 4.27 µM,
Clc1c(Cl)c2c(Cl)c(Cl)c1C[P+](c1ccccc1)(c1ccccc1)CC[P+](c1ccccc1)(c1ccccc1)Cc1c(Cl)c(Cl)c(c(Cl)c1Cl)C[P+](c1ccccc1)(c1ccccc1)CC[P+](c1ccccc1)(c1ccccc1)C2,> 66.1 µM,4.68 µM,
CCOC(=O)c1nc2ccccc2nc1Oc1ccc(OC)cc1,> 200 µM,> 200 µM,
COC(=O)CC1(O)C(C=C(C)C)C(C(=O)OC)C(=O)C(C(=O)OC)C1C(=O)OC (stereo not given),> 200 µM,> 200 µM,
CC(C)=CCC/C(C)=C/CC/C(C)=C/C1CCC(=O)C1(C)C (stereo not given),> 85.1 µM,41.7 µM,
NNc1c(C(N)=O)c2c(N)ncnc2n1C1OC(CO)C(O)C1O (stereo not given),> 0.2 µM,0.00912 µM,
CC(=O)OCC1OC(NC(=S)CCSc2nc3ccccc3c(=O)n2-c2ccccc2)C(OC(C)=O)C(OC(C)=O)C1OC(C)=O (stereo not given),> 200 µM,28.2 µM,
CCOC(=O)CC[C@H](NC(=O)N[C@H](C)c1ccccc1)C(=O)OCC,> 200 µM,39.8 µM,
Nc1ccccc1Sc1ccccc1,> 372 µM,77.6 µM,
Cc1ccc(NC(=O)C(=O)C2NC(=S)NC2=O)c([N+](=O)[O-])c1 (stereo not given),> 295 µM,129 µM,
CCCCOC(C)(C)/C=C/C(O)[C@](C)(O)[C@H]1[C@H](O)C[C@@]2(C)[C@@H]3CCc4c(cc(OC5OC(CO)C(O)C(O)C5O)c(O)c4C)C3(C)C(=O)C[C@]12C (stereo not given in full),> 200 µM,> 200 µM,
CN(C(=O)C12C3C4C5C3C1(C(=O)C13C6C7C8C6C1C8C73)C5C42)C(C)(C)C (stereo not given),> 135 µM,> 135 µM,
COc1ccc(/C=C/C(=O)c2cc(OC)cc(OC)c2)cc1,> 200 µM,0.955 µM,
COc1cc(C(=O)CBr)c(OC)cc1C,> 200 µM,> 200 µM,
CC1C=C[C@H](Sc2ccccc2)CC[C@@]1(C)O (stereo not given in full),> 251 µM,22.4 µM,
CC1OC(OCC2OC(Oc3ccc4c(=O)c(-c5ccc6c(c5)OCO6)coc4c3)C(O)C(O)C2O)C(O)C(O)C1O (stereo not given),129 µM,182 µM,
O=C(N/N=C\c1ccccc1)c1ccccc1Nc1ccccc1C(=O)N/N=C/c1ccccc1,26.9 µM,> 200 µM,

SMILES,EC50,IC50,outcome
CSc1nc(-c2ccccc2)c(C#N)c(=O)[nH]1,,,inactive
CCCCCCCCCCCCCCCCCCNC(=S)/N=C/c1c(O)cc(C)oc1=O,> 200 µM,32.4 µM,
CCCCNC(=O)Sc1ccccc1C(=O)NCCC(N)=O,0.933 µM,117 µM,
COC(=O)c1ccc(CSc2ccc(N)cc2)cc1,,,inactive
O=C(O)CCCNS(=O)(=O)c1ccccc1,,,inactive
N#Cc1cc2ccccc2n(Cc2ccccc2)c1=O,> 200 µM,> 200 µM,
CCOC(=O)C1(Cc2ccccc2)SCCCS1,> 91.2 µM,> 91.2 µM,
O=C(CCN(C(=O)O)S(=O)(=O)c1ccc(NC(=O)c2ccccc2)cc1)Nc1ccccc1,> 537 µM,> 537 µM,
CSC(=NCCCCN=C(NS(=O)(=O)c1ccc(Cl)cc1)SC)NS(=O)(=O)c1ccc(Cl)cc1,> 200 µM,> 200 µM,
C/C(O)=C(/C=N/C(N)=S)C(N)=O,,,inactive
CC1CC(C)(C)N=C(CCC[N+](=O)[O-])O1 (stereo not given),> 200 µM,> 200 µM,
COc1cc(-c2cc(-c3cc(C)cc(Cl)c3O)nc3ncnc(N)c23)ccc1O,> 200 µM,10.7 µM,
C#Cc1c(C)c(/C=C/C(C)=C\C(=O)OC)n(C)c1C,> 28.2 µM,> 28.2 µM,
C=CC(=O)N1C/C(=C\c2ccc(OC)cc2)C(=O)/C(=C/c2ccc(OC)cc2)C1,0.2 µM,2.4 µM,
COc1ccc2c(ccc3c(C(=O)NCCCN(C)CCCNC(=O)c4cn(C)c5c4ccc4cc(OC)ccc45)cn(C)c32)c1,> 200 µM,1.15 µM,
O=C1/C(=C/c2ccccc2)N=C(c2ccccc2)N1n1c(-c2ccccc2)nc2ccccc2c1=O,> 200 µM,75.9 µM,
COc1ccc2c3c([nH]c2c1[N+](=O)[O-])C(C)N(Cc1ccccc1)CC3 (stereo not given),,,inactive
CCOC(=O)/C=C/C1OC(C)(C)OC1/C=C/C(=O)OCC (stereo not given),> 200 µM,27.5 µM,
CCOC(=O)C1(c2ccccc2)C(=O)Oc2ccccc21 (stereo not given),13.2 µM,64.6 µM,
CCCc1onc(CCC(=O)N(Cc2ccccc2)Cc2ccccc2)c1CC,,,inactive
